Test results reported in ChEMBL document CHEMBL3797052 (Eur J Med Chem, 2016).

Columns and labels:
EKVX = assay: Antiproliferative activity against human EKVX cells assessed as growth inhibition after 48 hrs by sulforhodamine B assay; type: functional; conditions: for CC50: read-out: LC50 (the source's name)
[1] = Antiproliferative activity against human Caki1 cells assessed as growth inhibition after 48 hrs by sulforhodamine B assay; type: functional; conditions: CAKI-1, 48 h; for CC50: read-out: LC50 (the source's name)
[2] = Antiproliferative activity against human IGROV1 cells assessed as growth inhibition after 48 hrs by sulforhodamine B assay; type: functional; conditions: IGROV-1, 48 h; for CC50: read-out: LC50 (the source's name)
[3] = Antiproliferative activity against human LOXIMVI cells assessed as growth inhibition after 48 hrs by sulforhodamine B assay; type: functional; conditions: LOX IMVI; for CC50: read-out: LC50 (the source's name)
NCI-H23 [4] = assay: Antiproliferative activity against human NCI-H23 cells assessed as cell growth at 10^-4 M after 48 hrs by sulforhodamine B assay; type: functional; conditions: NCI-H23, 48 h, read-out: Activity
NCI-H322M = assay: Antiproliferative activity against human NCI-H322M cells assessed as cell growth at 10^-6 M after 48 hrs by sulforhodamine B assay; type: functional; conditions: read-out: Activity
SK-MEL-2 = assay: Antiproliferative activity against human SK-MEL-2 cells assessed as cell growth at 10^-7 M after 48 hrs by sulforhodamine B assay; type: functional; conditions: SK-MEL-2, 48 h, read-out: Activity
Malme-3M = assay: Antiproliferative activity against human MALME-3M cells assessed as cell growth at 10^-4 M after 48 hrs by sulforhodamine B assay; type: functional; conditions: read-out: Activity
hERG (KCNH2) = hERG (KCNH2) (Homo sapiens, UniProt Q12809); assay: Inhibition of human ERG assessed as reduction in channel current at 100 uM by automated patch-clamp electrophysiology assay
hERG (KCNH2), sequence (Q12809 whole entry): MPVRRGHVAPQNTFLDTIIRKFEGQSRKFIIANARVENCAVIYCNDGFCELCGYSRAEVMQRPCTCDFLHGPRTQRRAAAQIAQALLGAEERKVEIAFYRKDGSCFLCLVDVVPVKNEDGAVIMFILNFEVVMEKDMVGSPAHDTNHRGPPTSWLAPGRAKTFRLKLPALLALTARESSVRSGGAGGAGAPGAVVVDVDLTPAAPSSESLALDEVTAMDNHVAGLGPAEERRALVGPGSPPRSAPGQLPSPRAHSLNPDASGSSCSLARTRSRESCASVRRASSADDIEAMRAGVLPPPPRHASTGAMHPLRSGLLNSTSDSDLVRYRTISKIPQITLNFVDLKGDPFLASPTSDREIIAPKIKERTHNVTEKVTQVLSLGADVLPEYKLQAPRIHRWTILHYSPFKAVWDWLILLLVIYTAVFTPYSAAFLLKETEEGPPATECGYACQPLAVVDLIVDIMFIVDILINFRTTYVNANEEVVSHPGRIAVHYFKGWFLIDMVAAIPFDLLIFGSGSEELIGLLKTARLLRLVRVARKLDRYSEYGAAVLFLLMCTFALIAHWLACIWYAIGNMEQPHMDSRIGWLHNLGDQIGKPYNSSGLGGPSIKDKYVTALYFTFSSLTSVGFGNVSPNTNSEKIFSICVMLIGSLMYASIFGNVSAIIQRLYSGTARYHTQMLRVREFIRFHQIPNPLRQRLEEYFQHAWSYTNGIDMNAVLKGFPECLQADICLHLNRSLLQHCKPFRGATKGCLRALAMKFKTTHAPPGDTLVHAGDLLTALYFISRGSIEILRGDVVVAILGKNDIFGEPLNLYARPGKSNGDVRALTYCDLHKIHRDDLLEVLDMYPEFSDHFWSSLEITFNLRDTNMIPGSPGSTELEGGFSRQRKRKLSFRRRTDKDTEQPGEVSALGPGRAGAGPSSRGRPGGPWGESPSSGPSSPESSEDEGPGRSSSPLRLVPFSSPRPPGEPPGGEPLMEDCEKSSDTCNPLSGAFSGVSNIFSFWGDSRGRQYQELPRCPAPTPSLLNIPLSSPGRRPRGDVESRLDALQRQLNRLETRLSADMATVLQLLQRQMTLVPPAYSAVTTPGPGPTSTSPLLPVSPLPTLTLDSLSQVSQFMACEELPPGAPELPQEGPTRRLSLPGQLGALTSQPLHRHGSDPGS

M14 = assay: Antiproliferative activity against human M14 cells assessed as cell growth at 10^-7 M after 48 hrs by sulforhodamine B assay; type: functional; conditions: M14, 48 h, read-out: Activity
[5] = Antiproliferative activity against human HCT15 cells assessed as cell growth at 10^-7 M after 48 hrs by sulforhodamine B assay; type: functional; conditions: HCT-15, 48 h, read-out: Activity
[6] = Antiproliferative activity against human SW620 cells assessed as cell growth at 10^-6 M after 48 hrs by sulforhodamine B assay; type: functional; conditions: SW-620, 48 h, read-out: Activity
[7] = target: Voltage-gated inwardly rectifying potassium channel KCNH2 (Homo sapiens, UniProt Q12809); assay: Inhibition of human ERG assessed as reduction in channel current by automated patch-clamp electrophysiology assay
Voltage-gated inwardly rectifying potassium channel KCNH2, sequence (Q12809 whole entry): as above

NCI-H522 = assay: Antiproliferative activity against human NCI-H522 cells assessed as cell growth at 10^-6 M after 48 hrs by sulforhodamine B assay; type: functional; conditions: NCI-H522, 48 h, read-out: Activity
[8] = Antiproliferative activity against human HOP62 cells assessed as cell growth at 10^-8 M after 48 hrs by sulforhodamine B assay; type: functional; conditions: HOP-62, 48 h, read-out: Activity
[9] = Antiproliferative activity against human SNB75 cells assessed as cell growth at 10^-4 M after 48 hrs by sulforhodamine B assay; type: functional; conditions: SNB-75, 48 h, read-out: Activity
[10] = Antiproliferative activity against human SKOV3 cells assessed as cell growth at 10^-7 M after 48 hrs by sulforhodamine B assay; type: functional; conditions: SK-OV-3, 48 h, read-out: Activity
K562 = assay: Antiproliferative activity against human K562 cells assessed as cell growth at 10^-4 M after 48 hrs by sulforhodamine B assay; type: functional; conditions: K562, 48 h, read-out: Activity
[11] = Antiproliferative activity against human SF539 cells assessed as cell growth at 10^-6 M after 48 hrs by sulforhodamine B assay; type: functional; conditions: SF-539, 48 h, read-out: Activity
SR = assay: Antiproliferative activity against human SR cells assessed as cell growth at 10^-7 M after 48 hrs by sulforhodamine B assay; type: functional; conditions: read-out: Activity
NCI-H460 [12] = assay: Antiproliferative activity against human NCI-H460 cells assessed as cell growth at 10^-7 M after 48 hrs by sulforhodamine B assay; type: functional; conditions: NCI-H460, 48 h, read-out: Activity
[13] = Antiproliferative activity against human HOP62 cells assessed as cell growth at 10^-6 M after 48 hrs by sulforhodamine B assay; type: functional; conditions: HOP-62, 48 h, read-out: Activity
[14] = Antiproliferative activity against human NCI-ADR-RES cells assessed as cell growth at 10^-6 M after 48 hrs by sulforhodamine B assay; type: functional; conditions: read-out: Activity
SK-MEL-5 [15] = assay: Antiproliferative activity against human SK-MEL-5 cells assessed as cell growth at 10^-6 M after 48 hrs by sulforhodamine B assay; type: functional; conditions: SK-MEL-5, 48 h, read-out: Activity
NCI-H460 [16] = assay: Antiproliferative activity against human NCI-H460 cells assessed as cell growth at 10^-6 M after 48 hrs by sulforhodamine B assay; type: functional; conditions: NCI-H460, 48 h, read-out: Activity
NCI-H23 [17] = assay: Antiproliferative activity against human NCI-H23 cells assessed as cell growth at 10^-8 M after 48 hrs by sulforhodamine B assay; type: functional; conditions: NCI-H23, 48 h, read-out: Activity
MDA-MB-231 = assay: Antiproliferative activity against human MDA-MB-231 cells assessed as cell growth at 10^-8 M after 48 hrs by sulforhodamine B assay; type: functional; conditions: MDA-MB-231, 48 h, read-out: Activity
[18] = Antiproliferative activity against human UACC257 cells assessed as cell growth at 10^-7 M after 48 hrs by sulforhodamine B assay; type: functional; conditions: UACC-257, 48 h, read-out: Activity
[19] = Antiproliferative activity against human OVCAR8 cells assessed as cell growth at 10^-7 M after 48 hrs by sulforhodamine B assay; type: functional; conditions: OVCAR-8, 48 h, read-out: Activity
[20] = Antiproliferative activity against human LOXIMVI cells assessed as cell growth at 10^-4 M after 48 hrs by sulforhodamine B assay; type: functional; conditions: LOX IMVI, read-out: Activity
MDA-MB-435 = assay: Antiproliferative activity against human MDA-MB-435 cells assessed as cell growth at 10^-6 M after 48 hrs by sulforhodamine B assay; type: functional; conditions: MDA-MB-435, 48 h, read-out: Activity
[21] = Antiproliferative activity against human HCC2998 cells assessed as cell growth at 10^-7 M after 48 hrs by sulforhodamine B assay; type: functional; conditions: HCC 2998, 48 h, read-out: Activity
CCRF-CEM = assay: Antiproliferative activity against human CCRF-CEM cells assessed as cell growth at 10^-8 M after 48 hrs by sulforhodamine B assay; type: functional; conditions: read-out: Activity
HT-29 = assay: Antiproliferative activity against human HT-29 cells assessed as cell growth at 10^-8 M after 48 hrs by sulforhodamine B assay; type: functional; conditions: HT-29, 48 h, read-out: Activity
KM12 = assay: Antiproliferative activity against human KM12 cells assessed as cell growth at 10^-8 M after 48 hrs by sulforhodamine B assay; type: functional; conditions: KM12, 48 h, read-out: Activity
NCI-H23 [22] = assay: Antiproliferative activity against human NCI-H23 cells assessed as cell growth at 10^-7 M after 48 hrs by sulforhodamine B assay; type: functional; conditions: NCI-H23, 48 h, read-out: Activity
SK-MEL-5 [23] = assay: Antiproliferative activity against human SK-MEL-5 cells assessed as cell growth at 10^-8 M after 48 hrs by sulforhodamine B assay; type: functional; conditions: SK-MEL-5, 48 h, read-out: Activity

## CNC(=O)c1cc(Oc2ccc(NC(=O)Nc3ccc(Cl)c(C(F)(F)F)c3)cc2)ccn1 [SORAFENIB]
EKVX
  GI50: 2.51 µM
  TGI: 7.94 µM
  CC50: 63.1 µM
[1]
  GI50: 3.16 µM
  TGI: 3.98 µM
  CC50: 10 µM
[2]
  GI50: 2.51 µM
  TGI: 15.9 µM
  CC50: 79.4 µM
[3]
  TGI: 3.16 µM
  CC50: 7.94 µM

## CNC(=O)c1cc(Oc2ccc3nc(NC(=O)Nc4cc(C(F)(F)F)cc(C(F)(F)F)c4)sc3c2)ccn1
NCI-H23 [4]
  growth at 100 µM: -52%
NCI-H322M
  growth at 1 µM: 73%
EKVX
  GI50: 1.29 µM
  TGI: 4.56 µM
  CC50: 59.3 µM
SK-MEL-2
  growth at 0.1 µM: 97%
Malme-3M
  growth at 100 µM: -76%
hERG (KCNH2)
  inhibition at 100 µM: 30.2%
[1]
  GI50: 1.15 µM
  TGI: 2.69 µM
  CC50: 6.28 µM
M14
  growth at 0.1 µM: 104%
[5]
  growth at 0.1 µM: 100%
[6]
  growth at 1 µM: 80%
[7]
  IC50: > 100 µM
NCI-H522
  growth at 1 µM: 32%
[8]
  growth at 0.01 µM: 85%
[9]
  growth at 100 µM: -75%
[10]
  growth at 0.1 µM: 99%
K562
  growth at 100 µM: -35%
[2]
  GI50: 1.25 µM
  TGI: 3.16 µM
  CC50: 8.01 µM
[11]
  growth at 1 µM: 63%
SR
  growth at 0.1 µM: 91%
NCI-H460 [12]
  growth at 0.1 µM: 108%
[13]
  growth at 1 µM: 58%
[14]
  growth at 1 µM: 63%
SK-MEL-5 [15]
  growth at 1 µM: 36%
NCI-H460 [16]
  growth at 1 µM: 62%
[3]
  GI50: 1.21 µM
  TGI: 2.53 µM
  CC50: 5.29 µM
NCI-H23 [17]
  growth at 0.01 µM: 93%
MDA-MB-231
  growth at 0.01 µM: 103%
[18]
  growth at 0.1 µM: 114%
[19]
  growth at 0.1 µM: 102%
[20]
  growth at 100 µM: -62%
MDA-MB-435
  growth at 1 µM: 52%
[21]
  growth at 0.1 µM: 105%
CCRF-CEM
  growth at 0.01 µM: 111%
HT-29
  growth at 0.01 µM: 97%
KM12
  growth at 0.01 µM: 100%
NCI-H23 [22]
  growth at 0.1 µM: 95%
SK-MEL-5 [23]
  growth at 0.01 µM: 97%
